Results: patent publication US9051307B2, “Bipyridyl derivatives” (Merck Patent GmbH, priority 2010, dated 2015)
pIC50: −log10 of the molar value.

The molecules below were run against T1, GST-ALK5 (Homo sapiens, UniProt P36897) (assay: In-vitro (enzyme) kinase assay, 384-well flashplate, GST-ALK5 with GST-SMAD2 and 33P-ATP (Example 16)). Settings: 31.2 nM GST-ALK5, 439 nM GST-SMAD2, 3 mM ATP, 30° C., 45 min; IC50 classes; read-out: TβR activity (Example 16).
T1 sequence (P36897 34-503): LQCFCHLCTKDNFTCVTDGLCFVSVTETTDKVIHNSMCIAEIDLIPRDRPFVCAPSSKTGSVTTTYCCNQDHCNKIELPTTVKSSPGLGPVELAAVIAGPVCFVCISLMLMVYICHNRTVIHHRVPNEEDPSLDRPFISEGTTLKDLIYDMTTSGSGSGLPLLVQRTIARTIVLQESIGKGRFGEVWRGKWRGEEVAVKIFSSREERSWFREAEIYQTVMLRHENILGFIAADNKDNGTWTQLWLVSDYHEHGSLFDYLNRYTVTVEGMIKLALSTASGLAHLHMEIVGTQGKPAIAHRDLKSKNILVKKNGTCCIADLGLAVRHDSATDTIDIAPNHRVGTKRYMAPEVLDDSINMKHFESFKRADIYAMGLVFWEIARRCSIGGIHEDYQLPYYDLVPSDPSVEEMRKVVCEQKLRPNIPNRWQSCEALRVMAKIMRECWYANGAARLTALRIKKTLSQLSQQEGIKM
Assay type: biochemical
Procedure: In-vitro (Enzyme) Assay for Determination of the Efficacy of Inhibitors of the Inhibition of TGF-Beta-mediated Effects
The kinase assay was carried out as 384-well flashplate assay. 31.2 nM of GST-ALK5, 439 nM of GST-SMAD2 and 3 mM of ATP (with 0.3 μCi of ^33P-ATP/well) were incubated in a total volume of 35 μl (20 mM of HEPES, 10 mM of MgCl2, 5 mM of MnCl2, 1 mM of DTT, 0.1% of BSA, pH 7.4) without or with test substance (5-10 concentrations) at 30° C. for 45 min. The reaction was stopped using 25 μl of 200 mM EDTA solution, filtered with suction at room temperature after 30 min, and the wells were washed with 3 times 100 μl of 0.9% NaCl solution. Radioactivity was measured in the TopCount. The IC50 values were calculated using RS1.

SMILES | pIC50
OCCn1cc(-c2cncc(-c3ccnc(-c4cc(Cl)ccc4F)c3)c2)cn1 [Compound 34, 2-{4-[2′-(5-Chloro-2-fluoro-phenyl)-[3,4′]bipyridinyl-5-yl]-pyrazol-1-yl}-ethanol] | > 6.00
CN(C)CCCn1cc(-c2cncc(-c3ccnc(-c4cc(Cl)ccc4F)c3)c2)cn1 [Compound 30, (3-{4-[2′-(5-Chloro-2-fluoro-phenyl)-[3,4′]bipyridinyl-5-yl]-pyrazol-1-yl}-propyl)-dimethyl-amine] | > 6.00
Fc1ccccc1-c1cc(-c2cncc(-c3cnc4[nH]c(C(F)(F)F)cc4c3)c2)ccn1 [Compound 42, 2′-(2-Fluoro-phenyl)-5-(2-trifluoromethyl-1H-pyrrolo[2,3-b]pyridin-5-yl)-[3,4′]bipyridinyl] | 5.00 to 6.00
OCCCn1cc(-c2cncc(-c3ccnc(-c4ccccc4F)c3)c2)cn1 [Compound 22, 3-{4-[2′-(2-Fluoro-phenyl)-[3,4′]bipyridinyl-5-yl]-pyrazol-1-yl}-propan-1-ol] | > 6.00
CCOCc1cnc(C)nc1Nc1cncc(-c2ccnc(-c3ccccc3F)c2)c1 [Compound 45, (5-Ethoxymethyl-2-methyl-pyrimidin-4-yl)-[2′-(2-fluoro-phenyl)-[3,4′]bipyridinyl-5-yl]-amine] | 5.00 to 6.00
OCCn1cc(-c2cncc(-c3ccnc(-c4cc(C(F)(F)F)ccc4F)c3)c2)cn1 [Compound 31, 2-{4-[2′-(2-Fluoro-5-trifluoromethyl-phenyl)-[3,4′]bipyridinyl-5-yl]-pyrazol-1-yl}-ethanol] | > 6.00
CN1CCN(CCCn2cc(-c3cncc(-c4ccnc(-c5ccccc5F)c4)c3)cn2)CC1 [Compound 23, 2′-(2-Fluoro-phenyl)-5-{1-[3-(4-methyl-piperazin-1-yl)-propyl]-1H-pyrazol-4-yl}-[3,4′]bipyridinyl] | > 6.00
CCOc1cc(Nc2cncc(-c3ccnc(-c4ccccc4F)c3)c2)ccn1 [Compound 43, (2-Ethoxy-pyridin-4-yl)-[2′-(2-fluoro-phenyl)-[3,4′]bipyridinyl-5-yl]-amine] | 5.00 to 6.00
CN(C)CCCn1cc(-c2cncc(-c3ccnc(-c4ccccc4F)c3)c2)cn1 [Compound 29, (3-{4-[2′-(2-Fluoro-phenyl)-[3,4′]bipyridinyl-5-yl]-pyrazol-1-yl}-propyl)-dimethyl-amine] | > 6.00
Fc1ccccc1-c1cc(-c2cncc(-c3ccc(N4CCNCC4)nc3)c2)ccn1 [Compound 26, 2″-(2-Fluoro-phenyl)-6-piperazin-1-yl-[3,3′;5′,4″]terpyridine] | > 6.00
CN1CCC(n2cc(-c3cncc(-c4ccnc(-c5cc(C(F)(F)F)ccc5F)c4)c3)cn2)CC1 [Compound 36, 2′-(2-Fluoro-5-trifluoromethyl-phenyl)-5-[1-(1-methyl-piperidin-4-yl)-1H-pyrazol-4-yl]-[3,4′]bipyridinyl] | > 6.00
Fc1ccccc1-c1cc(-c2cncc(-n3cccn3)c2)ccn1 [Compound 41, 2′-(2-Fluoro-phenyl)-5-pyrazol-1-yl-[3,4′]bipyridinyl] | > 6.00
Fc1ccc(Cl)cc1-c1cc(-c2cncc(-c3cnn(C4CCNCC4)c3)c2)ccn1 [Compound 18, 2′-(5-Chloro-2-fluoro-phenyl)-5-(1-piperidin-4-yl-1H-pyrazol-4-yl)-[3,4′]bipyridinyl] | > 6.00
OCCn1cc(-c2cncc(-c3ccnc(-c4ccccc4F)c3)n2)cn1 [Compound 20, 2-(4-{6-[2-(2-Fluoro-phenyl)-pyridin-4-yl]-pyrazin-2-yl}-pyrazol-1-yl)-ethanol] | > 6.00
CN1CCC(n2cc(-c3cncc(-c4ccnc(-c5ccccc5F)c4)c3)cn2)CC1 [Compound 24, 2′-(2-Fluoro-phenyl)-5-[1-(1-methyl-piperidin-4-yl)-1H-pyrazol-4-yl]-[3,4′]bipyridinyl] | > 6.00
CN1CCC(n2cc(-c3cncc(-c4ccnc(-c5cc(Cl)ccc5F)c4)c3)cn2)CC1 [Compound 37, 2′-(5-Chloro-2-fluoro-phenyl)-5-[1-(1-methyl-piperidin-4-yl)-1H-pyrazol-4-yl]-[3,4′]bipyridinyl] | > 6.00
CN(C)CCCn1cc(-c2cncc(-c3ccnc(-c4cc(F)ccc4F)c3)c2)cn1 [Compound 28, (3-{4-[2′-(2,5-Difluoro-phenyl)-[3,4′]bipyridinyl-5-yl]-pyrazol-1-yl}-propyl)-dimethyl-amine] | > 6.00
Fc1ccccc1-c1cc(-c2cncc(-c3cnn(CCCN4CCOCC4)c3)c2)ccn1 [Compound 21, 2′-(2-Fluoro-phenyl)-5-[1-(3-morpholin-4-yl-propyl)-1H-pyrazol-4-yl]-[3,4′]bipyridinyl] | > 6.00
COc1ccc(Nc2cncc(-c3ccnc(-c4ccccc4F)c3)c2)cn1 [Compound 44, [2′-(2-Fluoro-phenyl)-[3,4′]bipyridinyl-5-yl]-(6-methoxy-pyridin-3-yl)-amine] | 5.00 to 6.00
CN1CCC(n2cc(-c3cncc(-c4ccnc(-c5cc(F)ccc5F)c4)c3)cn2)CC1 [Compound 35, 2′-(2,5-Difluoro-phenyl)-5-[1-(1-methyl-piperidin-4-yl)-1H-pyrazol-4-yl]-[3,4′]bipyridinyl] | > 6.00
OCCn1cc(-c2cncc(-c3ccnc(-c4cc(F)ccc4F)c3)c2)cn1 [Compound 32, 2-{4-[2′-(2,5-Difluoro-phenyl)-[3,4′]bipyridinyl-5-yl]-pyrazol-1-yl}-ethanol] | > 6.00
Fc1ccccc1-c1cc(-c2cncc(-c3cnn(C4CCNCC4)c3)c2)ccn1 [Compound 27, 2′-(2-Fluoro-phenyl)-5-(1-piperidin-4-yl-1H-pyrazol-4-yl)-[3,4′]bipyridinyl] | > 6.00
Fc1ccccc1-c1cc(-c2cncc(-c3cnc4ccccc4c3)c2)ccn1 [Compound 39, 2′-(2-Fluoro-phenyl)-5-quinolin-3-yl-[3,4′]bipyridinyl] | 5.00 to 6.00
CN1CCN(c2ccc(-c3cncc(-c4ccnc(-c5ccccc5F)c4)c3)cn2)CC1 [Compound 25, 2″-(2-Fluoro-phenyl)-6-(4-methyl-piperazin-1-yl)-[3,3′;5′,4″]terpyridine] | > 6.00
OCCn1cc(-c2cncc(-c3ccnc(-c4ccccc4F)c3)c2)cn1 [Compound 33, 2-{4-[2′-(2-Fluoro-phenyl)-[3,4′]bipyridinyl-5-yl]-pyrazol-1-yl}-ethanol] | > 6.00
